Source: patent US8618287B2, “Derivatives of triazines and uracils, their preparation and their application in human therapeutics” (Pierre Fabre Medicament, priority 2008, dated 2013)

Tests used:
[1] = target: T1, Human SCD-1 (Homo sapiens, UniProt O00767); experiment: Human SCD-1 enzymatic activity from microsomes of HepG2 cells (conversion of stearic acid into oleic acid); type: biochemical; details: 10 μM compound; microsomal fraction of HepG2 cells; relative to carrier 0.1% DMSO; read-out: HSCD-1 (HEPG2) % inh. (10 μM)
T1 construct: adding 125 μg of microsomal fraction of HepG2 cells; host or cells: HepG2 human hepatocarcinoma cells (microsomal fraction)
T1 sequence (O00767 1-359): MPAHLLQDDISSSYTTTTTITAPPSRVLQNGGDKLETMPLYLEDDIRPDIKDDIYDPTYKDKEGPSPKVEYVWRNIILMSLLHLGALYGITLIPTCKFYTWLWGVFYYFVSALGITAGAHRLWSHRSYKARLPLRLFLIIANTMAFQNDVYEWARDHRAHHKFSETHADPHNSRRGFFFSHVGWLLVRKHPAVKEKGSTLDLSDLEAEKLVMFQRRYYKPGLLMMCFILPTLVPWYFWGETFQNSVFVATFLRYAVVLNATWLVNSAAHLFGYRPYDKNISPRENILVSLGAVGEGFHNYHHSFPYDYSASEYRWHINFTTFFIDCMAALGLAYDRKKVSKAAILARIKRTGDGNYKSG
Experimental: In vitro: Human SCD-1 enzymatic activity from microsomes of HepG2 cells after treatment with inhibitory compounds (inhibition %).
Human hepatocarcinoma HepG2 cells (ATCC, HB-8065) are grown to confluence and then trypsinized. The cell pellet is taken up in 10 mM Tris buffer (pH 7.4), saccharose (250 mM) DTT (1 mM) and then the cells are lyzed by sonication. The microsomes are obtained after centrifugation at 10,000 g for 20 minutes a 4° C. followed by centrifugation of the supernatant at 100,000 g for 60 minutes a 4° C. The pellet is taken up in 10 mM Tris buffer (pH 7.4) saccharose (250 mM) at 4° C. and the microsomal proteins are assayed and stored at −196° C. (liquid nitrogen).
The enzymatic reaction measures the conversion of stearic acid (a C18:0 fatty acid) into oleic acid (C18:1 fatty acid) by SCD-1. The enzymatic reaction is started by adding 125 μg of microsomal fraction of HepG2 cells to tubes (total reaction volume of 500 μl) containing 62 μM of stearic acid (45 μM of stearic acid and 17 μM of [^14C] stearic acid) in a phosphate buffer at 100 mM (pH 7.16) with 7.2 mM of ATP, 0.54 mM of CoA, 6 mM of MgCl2, 0.8 mM of NADH and the inhibitory compound or the carrier (0.1% DMSO). The tubes are incubated for 20 minutes at 37° C. and the enzymatic reaction is then stopped by adding KOH (12%) and saponification for 30 minutes at 80° C. After acidification (3N HCl), the fatty acids are extracted twice with ethyl ether, evaporated under nitrogen before being taken up with a methanol/dichloromethane (3:1) mixture. The product of the reaction (C18:1) is separated from the substrate of the reaction (C18:0) by HPLC (Perkin Elmer, C18 reverse phase column) coupled to a on-line radioactivity detector (FlowOne). Enzymatic activity is calculated in picomoles of stearic acid converted into oleic acid per minute and per mg of protein. For each inhibitory compound, an inhibition % is determined relatively to the reference enzymatic activity (carrier 0.1% DMSO). Sterculic acid is the reference inhibitory compound (Gomez F. E., Bauman D. E., Ntambi J. M., Fox B. G. Effects of sterculic acid on stearoyl-CoA desaturase in differentiating […] adipocytes. Biochem Biophys Res Commun. 300 316-326 (2003)).

| Structure (SMILES) | melting point [°C] | inhibition at 10 µM [1] [%] |
| --- | --- | --- |
| Cn1cc(N2CCN(Cc3ccccc3)CC2)c(=O)n(C)c1=O | 162 | – |
| Cn1nc(N2CCN(c3cccc(C(F)(F)F)c3)CC2)c(=O)n(C)c1=O | 163 | – |
| CCCCCCCn1c(=O)c(N2CCN(C(=O)c3ccccc3C(F)(F)F)CC2)nn(C)c1=O [Example 1, 4-heptyl-2-methyl-6-[4-(2-trifluoromethyl-benzoyl)-piperazin-1-yl]-2H-[1,2,4]triazine-3,5-dione] | – | 11 |
| Cn1c(=O)c(N2CCN(C(=O)c3ccccc3C(F)(F)F)CC2)nn(CCCC(F)(F)F)c1=O [Example 3, 4-methyl-2-(4,4,4-trifluoro-butyl)-6-[4-(2-trifluoromethyl-benzoyl)-piperazin-1-yl]-2H-[1,2,4]triazine-3,5-dione] | – | 90 |
| Cn1nc(N2CCC(Oc3ccccc3C(F)(F)F)CC2)c(=O)n(C)c1=O [Example 11, 2,4-dimethyl-6-[4-(2-trifluoromethyl-phenoxy)-piperidin-1-yl]-2H-[1,2,4]triazine-3,5-dione] | – | 92 |
| CCCCCCCn1c(=O)c(N2CCC(Oc3ccccc3C(F)(F)F)CC2)nn(CCC#N)c1=O [Example 12, 3-{4-heptyl-3,5-dioxo-6-[4-(2-trifluoromethyl-phenoxy)-piperidin-1-yl]-4,5-dihydro-3H-[1,2,4]triazin-2-yl}-propionitrile] | – | 71 |
| CCCCn1nc(N2CCC(Oc3ccccc3C(F)(F)F)CC2)c(=O)n(C)c1=O [Example 13, 2-butyl-4-methyl-6-[4-(2-trifluoromethyl-phenoxy)-piperidin-1-yl]-2H-[1,2,4]triazine-3,5-dione] | – | 75 |
| CNC(=O)Cn1nc(N2CCC(Oc3ccccc3C(F)(F)F)CC2)c(=O)n(C)c1=O [Example 14, N-methyl-2-{4-methyl-3,5-dioxo-6-[4-(2-trifluoromethyl-phenoxy)-piperidin-1-yl]-4,5-dihydro-3H-[1,2,4]triazin-2-yl}-acetamide] | – | 74 |
| CCOCCn1nc(N2CCC(Oc3ccccc3C(F)(F)F)CC2)c(=O)n(C)c1=O [Example 15, 2-(2-ethoxy-ethyl)-4-methyl-6-[4-(2-trifluoromethyl-phenoxy)-piperidin-1-yl]-2H-[1,2,4]triazine-3,5-dione] | – | 74 |
| Cn1c(=O)c(N2CCC(Oc3ccccc3C(F)(F)F)CC2)nn(CCc2c[nH]c3ccccc23)c1=O [Example 16, 2-[2-(1H-Indol-3-yl)-ethyl]-4-methyl-6-[4-(2-trifluoromethyl-phenoxy)-piperidin-1-yl]-2H-[1,2,4]triazine-3,5-dione] | – | 57 |
| COc1ccccc1OC1CCN(c2nn(C)c(=O)n(C)c2=O)CC1 [Example 34, 6-[4-(2-methoxy-phenoxy)-piperidin-1-yl]-2,4-dimethyl-2H-[1,2,4]triazine-3,5-dione] | 78 | – |
| Cn1nc(N2CCC(C(=O)c3ccc(F)cc3)CC2)c(=O)n(C)c1=O [Example 36, 6-[4-(4-fluoro-benzoyl)-piperidin-1-yl]-2,4-dimethyl-2H-[1,2,4]triazine-3,5-dione] | 129 | – |
| Cn1nc(N2CCC(Oc3ccccc3C(F)(F)F)C2)c(=O)n(C)c1=O (centres unmarked) [Example 37, 2,4-dimethyl-6-[3-(2-trifluoromethyl-phenoxy)-pyrrolidin-1-yl]-2H-[1,2,4]triazine-3,5-dione] | 84 | – |
| Cn1nc(N2CCC(Oc3ccccc3)C2)c(=O)n(C)c1=O (centres unmarked) [Example 38, 2,4-dimethyl-6-(3-phenoxy-pyrrolidin-1-yl)-2H-[1,2,4]triazine-3,5-dione] | 80 | – |

Further lines, results first:

| melting point [°C] | inhibition at 10 µM [1] [%] | Structure (SMILES) |
| --- | --- | --- |
| 116 | – | Cn1nc(N2CCC(Cc3cc(C(F)(F)F)ccc3F)CC2)c(=O)n(C)c1=O [Example 39, 6-[4-(2-fluoro-5-trifluoromethyl-benzyl)-piperidin-1-yl]-2,4-dimethyl-2H-[1,2,4]triazine-3,5-dione] |
| 90 | – | Cn1nc(N2CCN(C(=O)c3cc(C(F)(F)F)ccc3C(F)(F)F)CC2)c(=O)n(C)c1=O [Example 40, 6-[4-(2,5-Bis-trifluoromethyl-benzoyl)-piperazin-1-yl]-2,4-dimethyl-2H-[1,2,4]triazine-3,5-dione] |
| 128 | – | Cn1nc(N2CCN(C(=O)c3ccc(F)cc3C(F)(F)F)CC2)c(=O)n(C)c1=O [Example 41, 6-[4-(4-fluoro-2-trifluoromethyl-benzoyl)-piperazin-1-yl]-2,4-dimethyl-2H-[1,2,4]triazine-3,5-dione] |
| 60 | – | Cc1ccccc1C(=O)N1CCN(c2nn(C)c(=O)n(C)c2=O)CC1 [Example 43, 2,4-dimethyl-6-[4-(2-methyl-benzoyl)-piperazin-1-yl]-2H-[1,2,4]triazine-3,5-dione] |
| 92 | – | Cn1nc(N2CCN(C(=O)c3cccc(C(F)(F)F)c3)CC2)c(=O)n(C)c1=O [Example 44, 2,4-dimethyl-6-[4-(3-trifluoromethyl-benzoyl)-piperazin-1-yl]-2H-[1,2,4]triazine-3,5-dione] |
| 119 | – | Cn1nc(N2CCN(C(=O)c3ccccc3Br)CC2)c(=O)n(C)c1=O [Example 45, 6-[4-(2-bromo-benzoyl)-piperazin-1-yl]-2,4-dimethyl-2H-[1,2,4]triazine-3,5-dione] |
| 132 | – | Cn1nc(N2CCN(C(=O)c3ccccc3)CC2)c(=O)n(C)c1=O [Example 46, 6-(4-benzoyl-piperazin-1-yl)-2,4-dimethyl-2H-[1,2,4]triazine-3,5-dione] |
| 58 | – | CC(C)C(C(=O)N1CCN(c2nn(C)c(=O)n(C)c2=O)CC1)c1ccc(Cl)cc1 (centres unmarked) [Example 49, 6-{4-[2-(4-chloro-phenyl)-3-methyl-butyryl]-piperazin-1-yl}-2,4-dimethyl-2H-[1,2,4]triazine-3,5-dione] |
| 198 | – | Cn1nc(N2CCN(C(=O)/C=C/c3ccc([N+](=O)[O-])cc3)CC2)c(=O)n(C)c1=O [Example 50, 2,4-dimethyl-6-{4-[(E)-3-(4-nitro-phenyl)-acryloyl]-piperazin-1-yl}-2H-[1,2,4]triazine-3,5-dione] |
| 93 | – | Cn1nc(N2CCN(C(=O)Oc3cccc(C(F)(F)F)c3)CC2)c(=O)n(C)c1=O [Example 51, 4-(2,4-dimethyl-3,5-dioxo-2,3,4,5-tetrahydro-[1,2,4]triazin-6-yl)-piperazine-1-carboxylic Acid 3-trifluoromethyl-phenyl Ester] |
| 90 | – | Cn1nc(N2CCN(C(=O)c3ccccc3C(F)(F)F)C(=O)C2)c(=O)n(C)c1=O [Example 53, 2,4-dimethyl-6-[3-oxo-4-(2-trifluoromethyl-benzoyl)-piperazin-1-yl]-2H-[1,2,4]triazine-3,5-dione] |
| 163 | – | Cn1cc(N2CCN(C(=O)c3ccccc3C(F)(F)F)CC2)c(=O)n(C)c1=O [Example 62, 1,3-dimethyl-5-[4-(2-trifluoromethyl-benzoyl)-piperazin-1-yl]-1H-pyrimidine-2,4-dione] |
| 102 | – | O=c1[nH]nc(N2CCC(Oc3ccccc3C(F)(F)F)CC2)c(=O)n1CCCC(F)(F)F [Example 72, 4-(4,4,4-trifluoro-butyl)-6-[4-(2-trifluoromethyl-phenoxy)-piperidin-1-yl]-2H-[1,2,4]triazine-3,5-dione] |
| 110 | – | Cn1c(=O)c(N2CCC(Oc3ccccc3C(F)(F)F)CC2)nn(C2Cc3ccccc3C2=O)c1=O (centres unmarked) [Example 87, 4-methyl-2-(1-oxo-indan-2-yl)-6-[4-(2-trifluoromethyl-phenoxy)-piperidin-1-yl]-2H-[1,2,4]triazine-3,5-dione] |
| 172 | – | Cn1nc(N2CCC(Oc3cc(F)ccc3Cl)CC2)c(=O)[nH]c1=O [Example 90, 6-(4-(2-chloro-5-fluorophenoxy)piperidin-1-yl)-2-methyl-1,2,4-triazine-3,5(2H, 4H)-dione] |
